According to patent publication US20100210597A1, “C21-Deoxy Ansamycin Derivatives as Antitumor Agents” (priority 2007, published 2010):
Values after ≈ are worked out from the molar mass of the structure shown. Values joined by “and” are separate entries in the source; they are usually repeats but may differ in a detail not shown here. Equal values may be shown once. Read-outs that look alike come from different tables or passages of the source. Each block holds one molecule with its values, some of them ahead of it.

Legend:
[1] = Aqueous solubility by direct dissolution; type: physicochemical; details: pH 4.5, aqueous buffer, aqueous 5 mM citrate, pH 4.5; limit not tested
Source text: It is not possible to measure the solubility of 20 and 23 by this method due to their intrinsic high aqueous solubility.

[2] = In vitro cleavage assay in buffer; type: physicochemical; details: for half-life at 0.1 mg/ml: read-out: half-life of disappearance (converted)
Description: Samples were monitored by LC-UV, on an Agilent 1100 HPLC. Chromatography was achieved over a Phenomenex Hyperclone column, BDS C18 3 u (150×4.6 mm):
Mobile phase A: 0.1% Formic acid in water Mobile phase B: 0.1% Formic acid in acetonitrile Flow rate: 1 mL/minute: Gradient, t=0 mins, B=10%; t=2 mins, B=10%; t=20 mins, B=100%.
Compound 23 elutes at 12.1 mins and compound 17 elutes at 11.2 minutes in these conditions.
0.05 ml injections were made, repeatedly from the same sample every 3.18 hours, for 50 hours. the ambient temperature was 23 degrees C. The UV response was measured for each time point for compound 23 and 17. The half-life of disappearance of compound 23 was calculated thus:
the natural logarithm of the response was plotted with respect to time (in hours). The slope and fit of the resultant line was calculated and the half life, t1/2=(In 2)/lambda. Where lambda is the slope of the graph.

Hsp90 = Hsp90 (Homo sapiens, UniProt P07900); details: cited from earlier work
[3] = Solubility assay in 2% DMSO in PBS; type: physicochemical; details: 2% DMSO in PBS pH 7.3, 0.5 mM, shaken up to six hours
Description: To analyse the solubilities of 17-AAG, geldanamycin, 18,21-dihydromacbecin and macbecin, solutions (25 mM) of the test compounds were prepared by dissolving 3-5 mg aliquots in the appropriate amount of DMSO.
Aliquots (0.01 mL) were added to 0.490 mL of pH 7.3 PBS in glass vials. For each time point, 3 PBS vials were prepared in amber glass vials. For the six hour time point triplicate aliquots in DMSO were also prepared.
The resulting 0.5 mM solutions were shaken for up to six hours, with vials removed for analysis at 1, 3 and 6 hours. Samples were analysed by HPLC (0.025 mL injections). Compounds were quantified by peak area measurement at 274 nm.
Solubility in 2% DMSO in PBS at each time point was determined by comparing total peak areas for each chromatogram with mean total peak area for chromatograms produced from the corresponding 6 hour DMSO solutions. (Mean total peak area in DMSO solutions was assumed to be equivalent to a 0.5 mM solution). The solubility of compound 17 was measured by a thermodynamic assay as described in the general methods.

[4] = test system: panel of human tumour cell lines; test: Monolayer proliferation assay, mean across cell line panel; type: cell-based; details: geometric mean of all replicates across six cell lines
Description: In vitro evaluation of compounds for anticancer activity in a panel of human tumour cell lines in a monolayer proliferation assay was carried out at the Oncotest Testing Facility, Institute for Experimental Oncology, Oncotest GmbH, Freiburg.
The Oncotest cell lines are established from human tumor xenografts as described by Roth et al., (1999). The origin of the donor xenografts is described by Fiebig et al., (1999). Other cell lines are either obtained from the NCl (DU145, MCF-7) or purchased from DSMZ, Braunschweig, Germany.
All cell lines, unless otherwise specified, are grown at 37° C. in a humidified atmosphere (95% air, 5% CO2) in a ‘ready-mix’ medium containing RPMI 1640 medium, 10% fetal calf serum, and 0.1 mg/mL gentamicin (PAA, Cölbe, Germany).
A modified propidium iodide assay was used to assess the effects of the test compound(s) on the growth of six human tumour cell lines (Dengler et al., (1995)).
Briefly, cells are harvested from exponential phase cultures by trypsinization, counted and plated in 96 well flat-bottomed microtitre plates at a cell density dependent on the cell line (5-10.000 viable cells/well). […] After thawing the plates, fluorescence was measured using the Cytofluor 4000 microplate reader (excitation 530 nm, emission 620 nm), giving a direct relationship to the total number of viable cells.
Growth inhibition is expressed as treated/control×100 (% T/C). […]

Structure (SMILES): CNCCN(C)C(=O)Oc1cc2cc(c1)NC(=O)/C(C)=C/CC[C@H](C)[C@@H](OC(N)=O)/C(C)=C/[C@H](C)[C@@H](O)[C@@H](OC)C[C@H](C)C2 [Compound 23, 18-O-(N,N′-dimethylethylenediaminecarbamoyl)-4,5-dihydro-11-O-demethyl-15-demethoxy-18,21-didehydro-18-hydroxy-21-deoxomacbecin]
solubility [1]: ≥ 3000 µg/mL and ≥ 4600 µM
half-life of disappearance ([2]; 0.1 M potassium phosphate buffer pH 4.5, 23 degrees C): not calculable (zero slope)
half-life at 0.1 mg/ml ([2]; 0.1 M potassium phosphate buffer pH 5.9, 23 degrees C): 69.3 h
half-life at 0.1 mg/ml ([2]; 0.1 M potassium phosphate buffer pH 6.5, 23 degrees C): 11.9 h
half-life at 0.1 mg/ml ([2]; 0.1 M potassium phosphate buffer pH 7.4, 23 degrees C): 2 h
half-life at 0.1 mg/ml ([2]; 5% glucose, 23 degrees C): 32 h
product of cleavage ([2]; by LC-UV-MS): compound 17

Structure (SMILES): CO[C@H]1C[C@H](C)Cc2cc(O)cc(c2)NC(=O)/C=C/CC[C@H](OC)[C@@H](OC(N)=O)/C(C)=C/[C@H](C)[C@H]1O [KOSN1559]
binding affinity to Hsp90, greater than 17-AAG (Hsp90; relative to 17-AAG): 8 fold
binding affinity to Hsp90, greater than geldanamycin (Hsp90; relative to geldanamycin): 4 fold

solubility [3]: 171 µM (≈ 100 µg/mL)
Structure (SMILES): C=CCNC1=C2C[C@@H](C)C[C@H](OC)[C@H](O)[C@@H](C)/C=C(\C)[C@H](OC(N)=O)[C@@H](OC)/C=C\C=C(/C)C(=O)NC(=CC1=O)C2=O [Compound 17-AAG, 17-(allylamino)-17-desmethoxy geldanamycin]

Structure (SMILES): CO[C@H]1[C@@H](OC)C[C@H](C)[C@@H](OC)C2=CC(=O)C=C(NC(=O)/C(C)=C/C=C\[C@H](C)[C@@H](OC(N)=O)/C(C)=C/[C@@H]1C)C2=O [macbecin, reference compound]
average IC70 value across the cell-line panel [4]: 0.21 µg/mL

Structure (SMILES): COC1CC(C)C(OC)c2cc(O)cc(c2O)NC(=O)/C(C)=C\C=C/C(C)C(OC(N)=O)/C(C)=C\C(C)C1OC (stereo not drawn) [18,21-dihydromacbecin]
solubility [3]: 136 µM (≈ 76.3 µg/mL)
